Reference: ChEMBL document CHEMBL4342404, “Anti-cholinesterase hybrids as multi-target-directed ligands against Alzheimer's disease (1998-2018)” (Bioorg Med Chem, 2019)

Target: Acetylcholinesterase (Electrophorus electricus) (UniProt O42275)
Test: Inhibition of electric eel AChE-induced amyloid beta 1 to 40 (unknown origin) aggregation at 100 uM incubated for 8 hrs by thioflavin-T fluorescence method relative to control
Settings: not given

Sequence of Acetylcholinesterase (Electrophorus electricus) (O42275 24-633 limits assumed): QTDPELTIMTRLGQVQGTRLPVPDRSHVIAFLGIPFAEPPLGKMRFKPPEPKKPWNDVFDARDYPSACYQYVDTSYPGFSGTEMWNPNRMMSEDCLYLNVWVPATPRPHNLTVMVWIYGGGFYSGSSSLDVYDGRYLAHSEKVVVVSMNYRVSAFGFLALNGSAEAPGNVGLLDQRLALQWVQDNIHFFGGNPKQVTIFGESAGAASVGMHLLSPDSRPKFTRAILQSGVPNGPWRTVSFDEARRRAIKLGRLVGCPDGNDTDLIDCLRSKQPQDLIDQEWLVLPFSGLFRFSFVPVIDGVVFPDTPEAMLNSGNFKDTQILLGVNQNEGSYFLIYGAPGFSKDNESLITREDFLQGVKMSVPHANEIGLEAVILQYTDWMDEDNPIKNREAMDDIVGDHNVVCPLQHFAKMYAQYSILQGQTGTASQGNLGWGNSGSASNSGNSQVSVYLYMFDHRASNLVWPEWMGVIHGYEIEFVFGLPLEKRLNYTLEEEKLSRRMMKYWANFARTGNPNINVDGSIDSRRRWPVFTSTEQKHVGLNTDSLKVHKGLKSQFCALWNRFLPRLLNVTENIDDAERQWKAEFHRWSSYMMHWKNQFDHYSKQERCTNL

Structure (SMILES)	inhibition
COc1ccc2[nH]cc(CCNC(=O)/C=C\C(=O)Nc3ccc4c(c3)C(=O)c3cccc5ccnc-4c35)c2c1	50.4%
Cc1ccc2[nH]cc(CCNC(=O)/C=C\C(=O)Nc3ccc4c(c3)C(=O)c3cccc5ccnc-4c35)c2c1	57.7%
O=C(/C=C\C(=O)Nc1ccc2c(c1)C(=O)c1cccc3ccnc-2c13)NCCc1c[nH]c2ccc(F)cc12	32.5%
O=C(/C=C/C(=O)Nc1ccc2c(c1)C(=O)c1cccc3ccnc-2c13)NCCc1c[nH]c2ccc(F)cc12	60.5%

Target: T1, Acetylcholinesterase (Mus musculus, UniProt P21836)
T1 sequence (P21836 whole entry): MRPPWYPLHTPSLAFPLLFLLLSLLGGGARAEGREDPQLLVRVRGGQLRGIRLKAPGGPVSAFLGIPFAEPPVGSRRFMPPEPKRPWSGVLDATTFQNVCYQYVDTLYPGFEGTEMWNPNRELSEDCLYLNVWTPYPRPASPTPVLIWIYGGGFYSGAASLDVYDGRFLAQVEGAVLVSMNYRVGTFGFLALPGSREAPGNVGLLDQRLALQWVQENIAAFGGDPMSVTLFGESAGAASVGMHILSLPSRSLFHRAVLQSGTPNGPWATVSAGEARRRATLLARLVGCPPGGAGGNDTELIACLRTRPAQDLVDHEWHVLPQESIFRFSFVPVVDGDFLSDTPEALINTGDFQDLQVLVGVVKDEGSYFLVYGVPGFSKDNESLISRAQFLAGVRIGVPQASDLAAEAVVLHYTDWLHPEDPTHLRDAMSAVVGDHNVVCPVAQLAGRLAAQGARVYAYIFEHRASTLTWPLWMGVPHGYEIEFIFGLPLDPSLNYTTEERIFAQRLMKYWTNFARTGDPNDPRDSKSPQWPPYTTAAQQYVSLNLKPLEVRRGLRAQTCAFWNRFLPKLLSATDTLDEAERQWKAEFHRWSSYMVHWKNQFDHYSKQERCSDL
Test: Inhibition of mouse brain acetylcholinesterase by Ellman's method
Settings: not given

Structure (SMILES)	IC50
CN(C)C(=O)Oc1ccc2c(c1)C=CCN[C@@H]2CCOc1ccc([N+](=O)[O-])cc1	14 nM
CN[C@@H](CCOc1ccc([N+](=O)[O-])cc1)c1ccc(OC(=O)N(C)C)cc1	101 nM
CN(C)C(=O)Oc1ccc([C@@H](N)CCOc2ccc([N+](=O)[O-])cc2)cc1	101 nM
CN[C@H](CCOc1ccc([N+](=O)[O-])cc1)c1ccc(OC(=O)N(C)C)cc1	143 nM
CNC(CCOc1ccc([N+](=O)[O-])cc1)c1ccc(OC(=O)N(C)C)cc1 (racemic)	125 nM

Target: Acetylcholinesterase (Homo sapiens, UniProt P22303)
Test: Potency index, ratio of tacrine IC50 for human erythrocyte acetylcholinesterase to compound IC50 for homogenate acetylcholinesterase
Settings: not given

Sequence of Acetylcholinesterase (Homo sapiens, UniProt P22303) (P22303 whole entry): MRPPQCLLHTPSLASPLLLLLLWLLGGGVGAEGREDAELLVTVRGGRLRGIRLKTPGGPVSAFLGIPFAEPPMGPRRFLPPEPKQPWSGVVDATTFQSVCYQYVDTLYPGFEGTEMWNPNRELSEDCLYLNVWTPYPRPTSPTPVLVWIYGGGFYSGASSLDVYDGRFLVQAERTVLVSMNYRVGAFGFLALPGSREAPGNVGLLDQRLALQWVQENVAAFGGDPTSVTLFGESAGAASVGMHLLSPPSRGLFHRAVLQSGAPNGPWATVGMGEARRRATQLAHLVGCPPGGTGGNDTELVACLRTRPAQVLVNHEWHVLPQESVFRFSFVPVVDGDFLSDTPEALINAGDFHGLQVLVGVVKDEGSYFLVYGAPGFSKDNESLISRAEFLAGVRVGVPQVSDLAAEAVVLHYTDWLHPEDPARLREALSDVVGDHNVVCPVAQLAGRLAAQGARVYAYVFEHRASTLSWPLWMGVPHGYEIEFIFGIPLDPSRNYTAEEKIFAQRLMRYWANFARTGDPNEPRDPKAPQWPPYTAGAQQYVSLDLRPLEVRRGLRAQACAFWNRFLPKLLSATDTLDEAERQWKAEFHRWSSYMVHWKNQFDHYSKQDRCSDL

Structure (SMILES)	Ratio IC50
O=C(CCCCCCNc1c2c(nc3ccccc13)CCCC2)NCCc1c[nH]c2ccccc12	70 to 43000
COc1ccc2[nH]cc(CCNC(=O)CCCCCCNc3c4c(nc5cc(Cl)cc(Cl)c35)CCCC4)c2c1	70 to 43000
O=C(CCCCCNc1c2c(nc3cc(Cl)ccc13)CCCC2)NCCc1c[nH]c2ccccc12	70 to 43000
COc1ccc2[nH]cc(CCNC(=O)CCCCCNc3c4c(nc5cc(Cl)ccc35)CCCC4)c2c1	70 to 43000
O=C(CCCCCCCNc1c2c(nc3cc(Cl)cc(Cl)c13)CCCC2)NCCc1c[nH]c2ccccc12	70 to 43000
S=C(CCCCCCCNc1c2c(nc3ccccc13)CCCC2)NCCc1c[nH]c2ccccc12	70 to 43000
COc1ccc2[nH]cc(CCNC(=O)CCCCCNc3c4c(nc5ccccc35)CCCC4)c2c1	70 to 43000
O=C(CCCCCNc1c2c(nc3cc(Cl)cc(Cl)c13)CCCC2)NCCc1c[nH]c2ccccc12	70 to 43000
COc1ccc2[nH]cc(CCNC(=O)CCCCCNc3c4c(nc5cccc(Cl)c35)CCCC4)c2c1	70 to 43000
O=C(CCCCNc1c2c(nc3ccccc13)CCCC2)NCCc1c[nH]c2ccccc12	70 to 43000
COc1ccc2[nH]cc(CCNC(=O)CCCCCCCNc3c4c(nc5ccccc35)CCCC4)c2c1	70 to 43000
O=C(CCCCCNc1c2c(nc3c(Cl)cccc13)CCCC2)NCCc1c[nH]c2ccccc12	70 to 43000
O=C(CCCCCNc1c2c(nc3ccc(F)cc13)CCCC2)NCCc1c[nH]c2ccccc12	70 to 43000
COc1ccc2[nH]cc(CCNC(=O)CCCCNc3c4c(nc5ccccc35)CCCC4)c2c1	70 to 43000
COc1ccc2[nH]cc(CCNC(=O)CCCCCNc3c4c(nc5cc(Cl)cc(Cl)c35)CCCC4)c2c1	70 to 43000
O=C(CCCCCNc1c2c(nc3ccccc13)CCCC2)NCCc1c[nH]c2ccc(O)cc12	70 to 43000
O=C(CCCCCCCNc1c2c(nc3ccccc13)CCCC2)NCCc1c[nH]c2ccccc12	70 to 43000
O=C(CCCCCCNc1c2c(nc3cc(Cl)ccc13)CCCC2)NCCc1c[nH]c2ccccc12	70 to 43000
S=C(CCCCCNc1c2c(nc3ccccc13)CCCC2)NCCc1c[nH]c2ccccc12	70 to 43000
O=C(CCCCCCNc1c2c(nc3cc(Cl)cc(Cl)c13)CCCC2)NCCc1c[nH]c2ccccc12	70 to 43000
O=C(CCCCCCCNc1c2c(nc3ccccc13)CCCC2)NCCc1c[nH]c2ccc(O)cc12	70 to 43000
COc1ccc2[nH]cc(CCNC(=O)CCCCCCNc3c4c(nc5ccccc35)CCCC4)c2c1	70 to 43000
O=C(CCCCCNc1c2c(nc3ccccc13)CCCC2)NCCc1c[nH]c2ccccc12	70 to 43000

Target: Cholinesterase (Homo sapiens, UniProt P06276)
Test: Inhibition of human serum butyrylcholinesterase using butyrylthiocholine iodide as substrate preincubated for 20 mins followed by substrate addition by Ellman's method
Settings: not given

Sequence of Cholinesterase (P06276 whole entry): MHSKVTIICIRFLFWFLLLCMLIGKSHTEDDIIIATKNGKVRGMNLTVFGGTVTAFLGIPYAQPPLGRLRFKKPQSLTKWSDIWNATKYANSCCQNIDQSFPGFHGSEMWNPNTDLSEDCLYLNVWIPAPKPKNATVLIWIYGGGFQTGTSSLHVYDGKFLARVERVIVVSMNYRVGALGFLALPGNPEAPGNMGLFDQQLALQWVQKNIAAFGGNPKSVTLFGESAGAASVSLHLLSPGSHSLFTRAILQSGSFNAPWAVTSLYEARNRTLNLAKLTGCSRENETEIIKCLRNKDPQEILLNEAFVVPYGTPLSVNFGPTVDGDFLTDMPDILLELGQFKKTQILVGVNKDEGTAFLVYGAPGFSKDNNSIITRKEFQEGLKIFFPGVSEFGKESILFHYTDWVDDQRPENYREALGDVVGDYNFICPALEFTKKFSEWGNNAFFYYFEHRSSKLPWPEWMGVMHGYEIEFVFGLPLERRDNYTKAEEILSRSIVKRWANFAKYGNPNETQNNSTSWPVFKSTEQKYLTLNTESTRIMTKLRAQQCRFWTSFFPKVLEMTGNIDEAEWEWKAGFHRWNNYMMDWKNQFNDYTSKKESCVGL

Structure (SMILES)	IC50
c1ccc2c(NCCSSCCNc3c4c(nc5ccccc35)CCCC4)c3c(nc2c1)CCCC3	5.66 nM

Target: Butyrylcholinesterase (Rattus norvegicus) (UniProt Q9JKC1)
Test: Inhibition of rat serum butyrylcholinesterase using butyrylthiocholine iodide as substrate at 50 uM incubated for 15 mins by Ellman's method relative to control
Settings: not given

Sequence of Butyrylcholinesterase (Rattus norvegicus) (Q9JKC1 as listed by the source): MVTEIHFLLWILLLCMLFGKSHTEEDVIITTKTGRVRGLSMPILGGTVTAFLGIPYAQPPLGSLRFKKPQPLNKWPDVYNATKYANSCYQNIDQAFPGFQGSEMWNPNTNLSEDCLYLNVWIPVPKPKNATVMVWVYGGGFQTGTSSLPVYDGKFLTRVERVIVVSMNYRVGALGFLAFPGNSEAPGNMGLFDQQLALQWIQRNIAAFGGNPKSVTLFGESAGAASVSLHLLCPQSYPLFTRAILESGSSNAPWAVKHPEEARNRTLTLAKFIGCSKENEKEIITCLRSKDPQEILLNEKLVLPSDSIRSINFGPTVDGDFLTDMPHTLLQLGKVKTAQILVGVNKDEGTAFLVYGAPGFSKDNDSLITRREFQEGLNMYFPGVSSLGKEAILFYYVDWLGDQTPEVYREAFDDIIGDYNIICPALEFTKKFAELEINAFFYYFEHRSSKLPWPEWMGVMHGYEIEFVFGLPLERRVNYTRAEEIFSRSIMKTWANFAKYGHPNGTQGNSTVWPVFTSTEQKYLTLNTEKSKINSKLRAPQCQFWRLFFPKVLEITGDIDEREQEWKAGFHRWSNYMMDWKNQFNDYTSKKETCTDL

Structure (SMILES)	inhibition
CCN(CC)Cc1ccc(/C=C/c2cnc(C)c3c2COC(C)(C)O3)cc1O	8.9%

Target: T2, Acetylcholinesterase (Rattus norvegicus, UniProt P37136)
T2 sequence (P37136 whole entry): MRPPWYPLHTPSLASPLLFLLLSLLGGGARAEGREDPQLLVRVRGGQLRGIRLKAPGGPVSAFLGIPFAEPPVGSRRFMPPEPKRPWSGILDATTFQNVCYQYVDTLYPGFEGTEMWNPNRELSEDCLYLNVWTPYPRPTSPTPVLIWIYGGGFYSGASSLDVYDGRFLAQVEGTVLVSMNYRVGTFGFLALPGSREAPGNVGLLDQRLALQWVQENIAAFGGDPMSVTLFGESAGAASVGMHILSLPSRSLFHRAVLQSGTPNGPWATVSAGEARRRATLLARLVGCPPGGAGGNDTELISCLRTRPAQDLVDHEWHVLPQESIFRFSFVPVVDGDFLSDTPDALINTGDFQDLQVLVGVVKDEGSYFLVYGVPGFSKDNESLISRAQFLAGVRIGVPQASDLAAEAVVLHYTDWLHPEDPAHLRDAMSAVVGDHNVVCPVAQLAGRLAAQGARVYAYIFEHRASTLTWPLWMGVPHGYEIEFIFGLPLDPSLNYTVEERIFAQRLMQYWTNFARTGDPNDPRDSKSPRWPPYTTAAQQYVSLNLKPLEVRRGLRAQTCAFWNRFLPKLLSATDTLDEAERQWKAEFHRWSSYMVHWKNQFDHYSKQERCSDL
Test: Antagonist activity at Acetylcholinesterase in Sprague-Dawley rat phrenic nerve-hemidiaphragm assessed as reversal of d-tubocurarine induced neuromuscular blockade after 15 mins
Settings: read-out: I50

Structure (SMILES)	IC50
CC1=CC2Cc3nc4cc(Cl)ccc4c(N)c3C(C1)C2 (single isomer, unassigned; (-)) [HUPRINE Y]	31.6 nM
CC1=C[C@@H]2Cc3nc4cc(F)ccc4c(N)c3[C@H](C1)C2	48.6 nM
CC1=CC2Cc3nc4ccccc4c(N)c3C(C1)C2 (racemic)	176 nM
CC1=CC2Cc3nc4cc(Cl)ccc4c(N)c3C(C1)C2 (racemic) [HUPRINE Y]	84.3 nM
CCC1=CC2Cc3nc4ccccc4c(N)c3C(C1)C2 (racemic)	84 nM

Target: Acetylcholinesterase (Electrophorus electricus, UniProt O42275)
Test: Inhibition of electric eel AChE using acetylthiocholine iodide as substrate preincubated for 15 mins followed by substrate addition and measured at 1 min intervals by Ellman's method
Settings: not given

Sequence of Acetylcholinesterase (Electrophorus electricus, UniProt O42275) (O42275 whole entry): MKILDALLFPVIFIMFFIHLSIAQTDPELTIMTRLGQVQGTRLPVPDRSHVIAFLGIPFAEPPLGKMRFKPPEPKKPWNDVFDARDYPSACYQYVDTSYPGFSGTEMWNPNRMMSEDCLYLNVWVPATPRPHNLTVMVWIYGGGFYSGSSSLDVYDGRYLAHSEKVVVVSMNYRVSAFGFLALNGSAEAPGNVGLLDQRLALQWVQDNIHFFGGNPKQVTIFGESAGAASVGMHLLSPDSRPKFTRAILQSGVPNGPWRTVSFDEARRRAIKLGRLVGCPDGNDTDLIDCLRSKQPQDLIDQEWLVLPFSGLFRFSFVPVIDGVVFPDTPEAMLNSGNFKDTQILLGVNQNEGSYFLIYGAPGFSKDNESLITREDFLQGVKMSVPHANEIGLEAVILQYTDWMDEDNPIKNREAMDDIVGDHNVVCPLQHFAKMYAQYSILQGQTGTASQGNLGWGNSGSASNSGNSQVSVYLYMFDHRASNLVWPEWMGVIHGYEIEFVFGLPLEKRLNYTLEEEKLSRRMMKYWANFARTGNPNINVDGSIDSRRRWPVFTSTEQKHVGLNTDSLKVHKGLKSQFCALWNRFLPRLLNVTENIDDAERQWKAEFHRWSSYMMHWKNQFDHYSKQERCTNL

Structure (SMILES)	IC50
COc1ccc2[nH]cc(CCNC(=O)/C=C\C(=O)Nc3ccc4c(c3)C(=O)c3cccc5ccnc-4c35)c2c1	6100 nM
Cc1ccc2[nH]cc(CCNC(=O)/C=C\C(=O)Nc3ccc4c(c3)C(=O)c3cccc5ccnc-4c35)c2c1	5100 nM
O=C(/C=C\C(=O)Nc1ccc2c(c1)C(=O)c1cccc3ccnc-2c13)NCCc1c[nH]c2ccc(F)cc12	15000 nM
O=C(/C=C/C(=O)Nc1ccc2c(c1)C(=O)c1cccc3ccnc-2c13)NCCc1c[nH]c2ccc(F)cc12	2370 nM

Test system: not listed separately
Test: Antioxidant activity of compound by ORAC-FL assay relative to trolox
Format: functional
Settings: not given

Structure (SMILES)	Ratio
COc1cc(/C=C/C(=O)N(CC(=O)Nc2c(C)cccc2Cl)C2CCN(Cc3ccccc3)CC2)ccc1O	4.8 to 8.71
COc1cc(/C=C/C(=O)N(CCCC2CCN(Cc3ccccc3)CC2)CC(=O)NCc2ccccc2)ccc1O	4.8 to 8.71
COc1cc(/C=C/C(=O)N(CCCC2CCN(Cc3ccccc3)CC2)CC(=O)Nc2c(C)cccc2Cl)ccc1O	4.8 to 8.71
COc1cc(/C=C/C(=O)N(CCC2CCN(Cc3ccccc3)CC2)CC(=O)Nc2ccc3ccccc3c2)ccc1O	4.8 to 8.71
COc1cc(/C=C/C(=O)N(CC(=O)NCc2ccccc2)C2CCN(Cc3ccccc3)CC2)ccc1O	4.8 to 8.71
COc1cc(/C=C/C(=O)N(CCC2CCN(Cc3ccccc3)CC2)CC(=O)NCc2ccccc2)ccc1O	4.8 to 8.71
COc1cc(/C=C/C(=O)N(CC(=O)Nc2ccc3ccccc3c2)C2CCN(Cc3ccccc3)CC2)ccc1O	4.8 to 8.71
COc1cc(/C=C/C(=O)N(CCC2CCN(Cc3ccccc3)CC2)CC(=O)Nc2c(C)cccc2Cl)ccc1O	4.8 to 8.71
COc1ccc2[nH]cc(CCNC(=O)CN(C(=O)/C=C/c3ccc(O)c(OC)c3)C3CCN(Cc4ccccc4)CC3)c2c1	4.8 to 8.71
COc1cc(/C=C/C(=O)N(CCCC2CCN(Cc3ccccc3)CC2)CC(=O)Nc2ccc3ccccc3c2)ccc1O	4.8 to 8.71

Organism: Homo sapiens
Test: Selectivity index, ratio of IC50 for human plasma butyrylcholinesterase to IC50 for human erythrocyte acetylcholinesterase
Settings: not given

Structure (SMILES)	Selectivity Index
COc1cc2oc(-c3ccc(NCCCNc4c5c(nc6cc(Cl)ccc46)CCCC5)cc3)cc(=O)c2c(OC)c1OC	92
COc1cc2oc(-c3ccc(NCCCCNc4c5c(nc6cc(Cl)ccc46)CCCC5)cc3)cc(=O)c2c(OC)c1OC	1690
COc1cc2oc(-c3ccc(NCCNc4c5c(nc6cc(Cl)ccc46)CCCC5)cc3)cc(=O)c2c(OC)c1OC	742

Target: Sodium-dependent serotonin transporter (Rattus norvegicus, UniProt P31652)
Test: Inhibition of rat synaptosome SERT assessed as reduction in [3H]5-HT uptake
Settings: not given

Sequence of Sodium-dependent serotonin transporter (P31652 whole entry): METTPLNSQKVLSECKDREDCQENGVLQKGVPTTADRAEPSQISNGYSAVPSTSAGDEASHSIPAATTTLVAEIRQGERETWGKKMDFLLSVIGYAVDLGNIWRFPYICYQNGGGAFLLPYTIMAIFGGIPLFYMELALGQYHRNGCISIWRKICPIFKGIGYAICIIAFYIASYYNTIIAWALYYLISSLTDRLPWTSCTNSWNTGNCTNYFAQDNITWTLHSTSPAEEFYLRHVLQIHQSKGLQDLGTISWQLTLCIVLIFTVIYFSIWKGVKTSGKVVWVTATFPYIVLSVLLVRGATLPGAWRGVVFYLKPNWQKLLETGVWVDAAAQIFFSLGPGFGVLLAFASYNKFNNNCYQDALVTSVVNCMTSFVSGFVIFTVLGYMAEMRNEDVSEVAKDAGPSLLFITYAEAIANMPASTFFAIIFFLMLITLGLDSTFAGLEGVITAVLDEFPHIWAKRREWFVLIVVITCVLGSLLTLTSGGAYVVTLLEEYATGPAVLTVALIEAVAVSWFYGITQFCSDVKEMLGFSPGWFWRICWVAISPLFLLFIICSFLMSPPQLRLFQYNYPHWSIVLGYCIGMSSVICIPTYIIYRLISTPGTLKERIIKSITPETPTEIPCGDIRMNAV

Structure (SMILES)	IC50
CN(C)C(=O)Oc1ccc2c(c1)C=CCN[C@@H]2CCOc1ccc([N+](=O)[O-])cc1	6 nM
CN[C@@H](CCOc1ccc([N+](=O)[O-])cc1)c1ccc(OC(=O)N(C)C)cc1	42 nM
CN(C)C(=O)Oc1ccc2c(c1)C=CCN(C)[C@H]2CCOc1ccc([N+](=O)[O-])cc1	930 nM
CN(C)C(=O)Oc1ccc([C@@H](N)CCOc2ccc([N+](=O)[O-])cc2)cc1	42 nM
CN[C@H](CCOc1ccc([N+](=O)[O-])cc1)c1ccc(OC(=O)N(C)C)cc1	135 nM
CNC(CCOc1ccc([N+](=O)[O-])cc1)c1ccc(OC(=O)N(C)C)cc1 (racemic)	44 nM
